Each structure is given as a SMILES string. Values after ≈ are worked out from the molar mass of the structure shown. Bounds are passed on as bounds.

What all share (type): functional
Assay [1] relates to Pseudomonas aeruginosa. The experiment in a line: Antibacterial activity against Pseudomonas aeruginosa ATCC 27853 after 24 hrs by broth dilution method. Conditions: ATCC 27853, 24 h.
Assay [2] relates to Staphylococcus epidermidis. The experiment in a line: Antibacterial activity against Staphylococcus epidermidis after 24 hrs by broth dilution method. (Dilution methods test growth across graded concentrations, often in twofold steps.)
For assay [3], the system named is Klebsiella pneumoniae. Kind of assay: Antibacterial activity against Klebsiella pneumoniae after 24 hrs by broth dilution method.
The test system of assay [4] is Staphylococcus aureus. Kind of assay: Antibacterial activity against Staphylococcus aureus ATCC 29213 after 24 hrs by broth dilution method. The note with it: ATCC 29213, 24 h.

The term MIC denotes the smallest concentration in the dilution series that meets the test's criterion for growth inhibition. High values mean a need for much substance, low ones inhibition by little substance. Turning to `CN1CCC[C@H]1c1cccnc1.Cc1ccc(C(C)C)c(OP(=S)(S)Oc2cc(C)ccc2C(C)C)c1`, the MIC in assay [1] was determined as 320 µM; in assay [2] it was 320 µM; in assay [3], 2530 µM; in assay [4], 320 µM.

In the case of `CN[C@H](CC(C)C)C(=O)N[C@H]1C(=O)N[C@@H](CC(N)=O)C(=O)N[C@H]2C(=O)N[C@H]3C(=O)N[C@H](C(=O)N[C@H](C(=O)O)c4cc(O)cc(O)c4-c4cc3ccc4O)[C@H](O)c3ccc(c(Cl)c3)Oc3cc2cc(c3O[C@@H]2O[C@H](CO)[C@@H](O)[C@H](O)[C@H]2O[C@H]2C[C@](C)(N)[C@H](O)[C@H](C)O2)Oc2ccc(cc2Cl)[C@H]1O` [VANCOMYCIN], the MIC in assay [1] was > 5000 µM; in assay [2], 0.7 µM (≈ 1.01 µg/mL); in assay [3], > 5000 µM; in assay [4] it was 1.4 µM (≈ 2.03 µg/mL).

With `C[C@@H]1[C@@H](OP(=S)(S)O[C@H]2C[C@H]3C[C@@H]([C@@H]2C)C3(C)C)C[C@H]2C[C@@H]1C2(C)C.Cc1ncc(CO)c(CO)c1O`, the MIC in assay [1] turned out to be 320 µM; in assay [2] it was 20 µM; in assay [3], 320 µM; in assay [4], 20 µM.

In the case of `CCCCOP(=S)(S)OCCCC.CN1CCC[C@H]1c1cccnc1`, the minimal inhibitory concentration (MIC) in assay [1] was determined as 3630 µM; in assay [2], 1810 µM; in assay [3], 3630 µM; in assay [4], 1810 µM.

As to `CC(C)[C@H]1CC[C@H](C)C[C@@H]1OP(=S)(S)O[C@H]1C[C@@H](C)CC[C@@H]1C(C)C.CN1CCC[C@H]1c1cccnc1`, the MIC in assay [1] is 320 µM; in assay [2], 20 µM; in assay [3] it was 320 µM; in assay [4], 20 µM.

On to `CC(C)[C@H]1CC[C@H](C)C[C@@H]1OP(=S)(S)O[C@H]1C[C@@H](C)CC[C@@H]1C(C)C.Cc1ncc(CO)c(CO)c1O`, for which the MIC came out at 320 µM in assay [1], 10 µM in assay [2], 320 µM in assay [3] and 40 µM in assay [4].

In the case of `Cc1ccc(C(C)C)c(OP(=S)(S)Oc2cc(C)ccc2C(C)C)c1.NC(=O)c1cccnc1`, the minimal inhibitory concentration (MIC) in assay [1] amounted to 380 µM; in assay [2], 380 µM; in assay [3], 1500 µM; in assay [4] it was 380 µM.

In the case of `CC1(C)[C@H]2CC[C@]1(C)[C@H](OP(=S)(S)O[C@@H]1C[C@@H]3CC[C@@]1(C)C3(C)C)C2`, the minimum inhibitory concentration (MIC) in assay [1], in assay [2], in assay [3] and in assay [4] was 6210 µM (≈ 2500 µg/mL) in each case.

Regarding `Cc1ccc(C(C)C)c(OP(=S)(S)Oc2cc(C)ccc2C(C)C)c1`, the MIC in assay [1], in assay [2], in assay [3] and in assay [4] was 3800 µM (≈ 1500 µg/mL) each time.

With `Cc1ccc(C(C)C)c(OP(=S)(S)Oc2cc(C)ccc2C(C)C)c1.Cc1ncc(CO)c(CO)c1O`, the minimal inhibitory concentration (MIC) in assay [1], in assay [2], in assay [3] and in assay [4] was 530 µM throughout.

Consider `CC1(C)[C@H]2CC[C@]1(C)[C@H](OP(=S)(S)O[C@@H]1C[C@@H]3CC[C@@]1(C)C3(C)C)C2.CN1CCC[C@H]1c1cccnc1`, for which the minimal inhibitory concentration (MIC) came out at 320 µM in assay [1], 20 µM in assay [2], 320 µM in assay [3] and 20 µM in assay [4].

As for `CC1(C)[C@H]2CC[C@](C)(C2)[C@H]1OP(=S)(S)O[C@H]1C(C)(C)[C@H]2CC[C@]1(C)C2.Cc1ncc(CO)c(CO)c1O`, the MIC in assay [1] came out at 320 µM; in assay [2], 20 µM; in assay [3] it was 320 µM; in assay [4], 20 µM.

For the molecule `CN1CCC[C@H]1c1cccnc1.C[C@@H]1[C@@H](OP(=S)(S)O[C@H]2C[C@H]3C[C@@H]([C@@H]2C)C3(C)C)C[C@H]2C[C@@H]1C2(C)C`, the MIC in assay [1] was 320 µM; in assay [2] it was 20 µM; in assay [3] it was 320 µM; in assay [4], 20 µM.

Regarding `CCCCOP(=S)(S)OCCCC.NC(=O)c1cccnc1`, the MIC in assay [1], in assay [2], in assay [3] and in assay [4] was 4130 µM in each case.

The values are drawn from ChEMBL document CHEMBL4371024, “Synthesis and characterization of pyridoxine, nicotine and nicotinamide salts of dithiophosphoric acids as antibacterial agents against resistant wound infection” (Bioorg Med Chem, 2019).
